Assay results published in US10414983B2, “Curved liquid crystal display” (SAMSUNG DISPLAY CO., LTD., priority 2017, dated 2019).

test: Adsorption force of the first compound; format: physicochemical; parameters: unit not given here; details: adsorption to pixel electrode; unit not given; larger absolute value = stronger adsorption
Excerpt: Next, a physical characteristic of the first compound according to an example embodiment obtained as above-described and a comparative example are compared.
As described in Table 2, solubility and adsorption force of the first compound according to Examples 1 to 7 and the Comparative Example are described.
Referring to Table 2, in the case of the first compound according to an example embodiment, it is confirmed that the solubility is the same level as or higher than the comparative example. Also, it may be confirmed that an absolute value of the adsorption force of the first compound is the same level as or higher than the comparative example. Accordingly, the first compound may be easily absorbed to the pixel electrode, thereby it may be confirmed that the solubility is excellent when being injected to the liquid crystal material and the first compound is easily injected along with the liquid crystal material.

First: C=C(C)C(=O)OCCCc1cc(-c2ccccc2CC)cc(CCCOC(=O)C(=C)C)c1OCCCCCc1ccc(OCCCCCO)cc1 [Comparative Example, reference compound]
Second: C=C(C)C(=O)OCCCCCOc1c(F)cc(-c2ccc(OCCCCCCOC(=O)CCN(CCC)CCO)cc2)cc1F [Example 3]
The Adsorption force of the first is higher: −0.49 for the first, −0.99 for the second.

Going from `C=C(CCN(CCO)CCO)Oc1ccc(C(=O)c2ccc(OC(=O)C(=C)C)cc2)cc1` [Example 1] to `C=C(C)C(=O)OCCCCCOc1ccc(C(=O)c2ccc(OCCCCCCOC(=O)CCN(CCO)CCO)cc2)cc1` [Example 2], the Adsorption force falls from −1.27 to −1.34.

First: C=CC(=O)OCCOc1c(F)cc(-c2ccc(OCCOC(=O)CCOC3CCOCC3)cc2)cc1F [Example 4]
Second: C=CC(=O)OCCOc1c(F)cc(-c2ccc(OCCOC(=O)CCOCc3ccoc3)cc2)cc1F [Example 5]
The Adsorption force of the first is higher: −0.40 for the first, −0.45 for the second.

Compared with `C=CC(=O)OCCOc1c(F)cc(-c2ccc(OCCOC(=O)CCOCc3cccnn3)cc2)cc1F` [Example 6], `C=CC(=O)OCCOc1c(F)cc(-c2ccc(OCCOC(=O)CCOCc3ccon3)cc2)cc1F` [Example 7] is lower in Adsorption force: −0.51 for the first, −0.53 for the second.
